Measurements: PMC10962654 (Journal of Food and Drug Analysis, 2023)
Where a name gives a salt, the structure may show the parent alone. Read-outs that look alike come from different tables or passages of the source.

Columns and labels:
[1] = MI/R rats, plasma, n = 6
α-HBDH = test: Plasma α-HBDH; type: in vivo, Sprague Dawley rats; conditions: MI/R rats, Sigmoid-Emax model
IMA = test: Plasma IMA; type: in vivo, Sprague Dawley rats; conditions: MI/R rats, Sigmoid-Emax model
cTn I = test: Plasma cTn I; type: in vivo, Sprague Dawley rats; conditions: MI/R rats, Sigmoid-Emax model
[2] = test system: CK-MB, IMA, cTn I, and α-HBDH; test: Cardioprotection in MI/R rats judged on the four myocardial injury biomarkers; type: in vivo, Sprague Dawley rats; conditions: plasma, ELISA, i.v.
CK-MB = test: Plasma CK-MB; type: in vivo, Sprague Dawley rats; conditions: MI/R rats, Sigmoid-Emax model

With `O=C(/C=C/c1ccc(O)c(O)c1)O[C@@H]1C[C@](O)(C(=O)O)C[C@@H](O)[C@H]1O` [Chlorogenic acid, chlorogenic acid] the CL1 ([1]; GHI-H (GHI 10 mL/kg, i.v.)) was 42.57 ± 1.53 mL/min/kg, the CL2 ([1]; GHI-H (GHI 10 mL/kg, i.v.)) was 173.38 ± 15.2 mL/min/kg and the K10 ([1]; GHI-H (GHI 10 mL/kg, i.v.)) was 6.701 ± 1.078 h⁻¹. For the same molecule, the K12 ([1]; GHI-H (GHI 10 mL/kg, i.v.)) was 27.459 ± 6.003 h⁻¹, the K21 ([1]; GHI-H (GHI 10 mL/kg, i.v.)) was 8.203 ± 0.823 h⁻¹ and the Q ([1]; GHI-H (GHI 10 mL/kg, i.v.)) was 173.3 ± 15.2 mL/min/kg. It also gave a V1 ([1]; GHI-H (GHI 10 mL/kg, i.v.)) of 0.389 ± 0.059 L/kg, a V2 ([1]; GHI-H (GHI 10 mL/kg, i.v.)) of 1.273 ± 0.103 L/kg and a t1/2α ([1]; GHI-H (GHI 10 mL/kg, i.v.)) of 1.08 ± 0.18 min. For the same molecule, the CL1 ([1]; GHI-L (GHI […], i.v.)) was 44.48 ± 2.82 mL/min/kg, the CL2 ([1]; GHI-L (GHI […], i.v.)) was 150 ± 15.1 mL/min/kg and the K10 ([1]; GHI-L (GHI […], i.v.)) was 4.274 ± 1.912 h⁻¹. For the same molecule, the K12 ([1]; GHI-L (GHI […], i.v.)) was 14.327 ± 4.021 h⁻¹, the K21 ([1]; GHI-L (GHI […], i.v.)) was 3.902 ± 0.294 h⁻¹ and the Q ([1]; GHI-L (GHI […], i.v.)) was 149.8 ± 15.1 mL/min/kg. For the same molecule, the V1 ([1]; GHI-L (GHI […], i.v.)) was 0.672 ± 0.201 L/kg, the V2 ([1]; GHI-L (GHI […], i.v.)) was 2.304 ± 0.146 L/kg and the t1/2α ([1]; GHI-L (GHI […], i.v.)) was 2.04 ± 0.54 min. It also gave a CL1 ([1]; GHI-M (GHI 5 mL/kg, i.v.)) of 32.32 ± 2.43 mL/min/kg, a CL2 ([1]; GHI-M (GHI 5 mL/kg, i.v.)) of 120 ± 8.42 mL/min/kg and a K10 ([1]; GHI-M (GHI 5 mL/kg, i.v.)) of 3.987 ± 0.663 h⁻¹. The K12 ([1]; GHI-M (GHI 5 mL/kg, i.v.)) was 14.709 ± 1.766 h⁻¹, the K21 ([1]; GHI-M (GHI 5 mL/kg, i.v.)) was 4.84 ± 0.29 h⁻¹ and the Q ([1]; GHI-M (GHI 5 mL/kg, i.v.)) was 119.8 ± 8.4 mL/min/kg. It also gave a V1 ([1]; GHI-M (GHI 5 mL/kg, i.v.)) of 0.496 ± 0.08 L/kg, a V2 ([1]; GHI-M (GHI 5 mL/kg, i.v.)) of 1.49 ± 0.142 L/kg and a t1/2α ([1]; GHI-M (GHI 5 mL/kg, i.v.)) of 1.86 ± 0.18 min. For the same molecule, the “Emax (maximal effect) of optimal PK/PD equation, Δα-HBDH” value (“Emax (maximal effect) … Δα-HBDH” for short) (α-HBDH; GHI-H (10 mL/kg, i.v.)) was 86.524, the “Emax (maximal effect) … Δα-HBDH” value (α-HBDH; GHI-L ([…], i.v.)) was 48.745 and the “Emax (maximal effect) … Δα-HBDH” value (α-HBDH; GHI-M (5 mL/kg, i.v.)) was 72.774. For the same molecule, the “Emax (maximal effect) of optimal PK/PD equation, ΔIMA” value (“Emax (maximal effect) … ΔIMA” below) (IMA; GHI-L ([…], i.v.)) was 28.211 and the “Emax (maximal effect) of optimal PK/PD equation, ΔcTn I” value (“Emax (maximal effect) … ΔcTn I” below) (cTn I; GHI-M (5 mL/kg, i.v.)) was 7.28.
With `COc1ccc(CCN(C)CCCC(C#N)(c2ccc(OC)c(OC)c2)C(C)C)cc1OC` (stereo not drawn) [verapamil hydrochloride, Verapamil hydrochloride] the “elevated level of the four biomarkers induced by MI/R” value [2] was “declined to different degrees”.
In the case of `CC(=O)N[C@@H](CCC(N)=O)C(=O)O` [N-acetyl-L-glutamine], the “AUC(0-t)” value ([1]; GHI-H (GHI 10 mL/kg, i.v.)) is reported as 1048.88 ± 551.764 ng·h/mL, the “AUC(0-∞)” value ([1]; GHI-H (GHI 10 mL/kg, i.v.)) is reported as 1079.308 ± 551.248 ng·h/mL and the t1/2β ([1]; GHI-H (GHI 10 mL/kg, i.v.)) is reported as 42.5 ± 4.98 min. For the same molecule, the “AUC(0-t)” value ([1]; GHI-L (GHI […], i.v.)) was 538.219 ± 290.308 ng·h/mL, the “AUC(0-∞)” value ([1]; GHI-L (GHI […], i.v.)) was 553.382 ± 290.017 ng·h/mL and the t1/2β ([1]; GHI-L (GHI […], i.v.)) was 48.8 ± 4.68 min. For the same molecule, the “AUC(0-t)” value ([1]; GHI-M (GHI 5 mL/kg, i.v.)) was 1012.749 ± 472.353 ng·h/mL, the “AUC(0-∞)” value ([1]; GHI-M (GHI 5 mL/kg, i.v.)) was 1060.065 ± 473.211 ng·h/mL and the t1/2β ([1]; GHI-M (GHI 5 mL/kg, i.v.)) was 27.7 ± 1.38 min. The “Emax (maximal effect) of optimal PK/PD equation, ΔCK-MB” value (“Emax (maximal effect) … ΔCK-MB” below) (CK-MB; GHI-L ([…], i.v.)) was 11.04, the “Emax (maximal effect) … ΔCK-MB” value (CK-MB; GHI-M (5 mL/kg, i.v.)) was 13.089 and the “Emax (maximal effect) … Δα-HBDH” value (α-HBDH; GHI-H (10 mL/kg, i.v.)) was 91.925. For the same molecule, the “Emax (maximal effect) … Δα-HBDH” value (α-HBDH; GHI-L ([…], i.v.)) was 48.85, the “Emax (maximal effect) … Δα-HBDH” value (α-HBDH; GHI-M (5 mL/kg, i.v.)) was 72.312 and the “Emax (maximal effect) … ΔIMA” value (IMA; GHI-H (10 mL/kg, i.v.)) was 77.916. The “Emax (maximal effect) … ΔIMA” value (IMA; GHI-L ([…], i.v.)) was 31.136, the “Emax (maximal effect) … ΔIMA” value (IMA; GHI-M (5 mL/kg, i.v.)) was 42.733 and the “Emax (maximal effect) … ΔcTn I” value (cTn I; GHI-H (10 mL/kg, i.v.)) was 10.158. For the same molecule, the “Emax (maximal effect) … ΔcTn I” value (cTn I; GHI-L ([…], i.v.)) was 4.608 and the “Emax (maximal effect) … ΔcTn I” value (cTn I; GHI-M (5 mL/kg, i.v.)) was 6.714.
For `O=c1c(O[C@@H]2O[C@H](CO)[C@@H](O)[C@H](O)[C@H]2O)c(-c2ccc(O)cc2)oc2cc(O)cc(O)c12` [Kaempferol-3-O-glucoside, kaempferol-3-O-glucoside], the “AUC(0-t)” value ([1]; GHI-H (GHI 10 mL/kg, i.v.)) was 116.314 ± 56.651 ng·h/mL, the “AUC(0-∞)” value ([1]; GHI-H (GHI 10 mL/kg, i.v.)) was 122.652 ± 56.297 ng·h/mL and the CL2 ([1]; GHI-H (GHI 10 mL/kg, i.v.)) was 141.2 ± 10.2 mL/min/kg. For the same molecule, the K10 ([1]; GHI-H (GHI 10 mL/kg, i.v.)) was 9.636 ± 0.934 h⁻¹, the K12 ([1]; GHI-H (GHI 10 mL/kg, i.v.)) was 17.927 ± 1.512 h⁻¹ and the K21 ([1]; GHI-H (GHI 10 mL/kg, i.v.)) was 6.02 ± 0.636 h⁻¹. The Q ([1]; GHI-H (GHI 10 mL/kg, i.v.)) was 141.2 ± 10.2 mL/min/kg, the V1 ([1]; GHI-H (GHI 10 mL/kg, i.v.)) was 0.475 ± 0.044 L/kg and the V2 ([1]; GHI-H (GHI 10 mL/kg, i.v.)) was 1.419 ± 0.173 L/kg. For the same molecule, the t1/2α ([1]; GHI-H (GHI 10 mL/kg, i.v.)) was 1.32 ± 0.12 min, the t1/2β ([1]; GHI-H (GHI 10 mL/kg, i.v.)) was 23.1 ± 3.18 min and the “AUC(0-t)” value ([1]; GHI-L (GHI […], i.v.)) was 23.576 ± 12.633 ng·h/mL. The “AUC(0-∞)” value ([1]; GHI-L (GHI […], i.v.)) was 25.109 ± 12.653 ng·h/mL, the CL1 ([1]; GHI-L (GHI […], i.v.)) was 87.58 ± 9.88 mL/min/kg and the CL2 ([1]; GHI-L (GHI […], i.v.)) was 133.3 ± 27.68 mL/min/kg. It also gave a K10 ([1]; GHI-L (GHI […], i.v.)) of 10.09 ± 2.541 h⁻¹, a K12 ([1]; GHI-L (GHI […], i.v.)) of 15.148 ± 3.65 h⁻¹ and a K21 ([1]; GHI-L (GHI […], i.v.)) of 2.832 ± 0.492 h⁻¹. It also gave a Q ([1]; GHI-L (GHI […], i.v.)) of 133.3 ± 27.67 mL/min/kg, a V1 ([1]; GHI-L (GHI […], i.v.)) of 0.54 ± 0.101 L/kg and a V2 ([1]; GHI-L (GHI […], i.v.)) of 2.822 ± 0.3 L/kg. The t1/2α ([1]; GHI-L (GHI […], i.v.)) was 1.56 ± 0.3 min, the t1/2β ([1]; GHI-L (GHI […], i.v.)) was 40.4 ± 5.64 min and the “AUC(0-t)” value ([1]; GHI-M (GHI 5 mL/kg, i.v.)) was 31.49 ± 12.303 ng·h/mL. For the same molecule, the “AUC(0-∞)” value ([1]; GHI-M (GHI 5 mL/kg, i.v.)) was 35.448 ± 11.949 ng·h/mL, the CL1 ([1]; GHI-M (GHI 5 mL/kg, i.v.)) was 68.72 ± 8.47 mL/min/kg and the CL2 ([1]; GHI-M (GHI 5 mL/kg, i.v.)) was 79.43 ± 17.82 mL/min/kg. For the same molecule, the K10 ([1]; GHI-M (GHI 5 mL/kg, i.v.)) was 8.042 ± 3.472 h⁻¹, the K12 ([1]; GHI-M (GHI 5 mL/kg, i.v.)) was 9.709 ± 5.342 h⁻¹ and the K21 ([1]; GHI-M (GHI 5 mL/kg, i.v.)) was 3.087 ± 1.742 h⁻¹. For the same molecule, the Q ([1]; GHI-M (GHI 5 mL/kg, i.v.)) was 79.4 ± 17.78 mL/min/kg, the V1 ([1]; GHI-M (GHI 5 mL/kg, i.v.)) was 0.59 ± 0.22 L/kg and the V2 ([1]; GHI-M (GHI 5 mL/kg, i.v.)) was 1.87 ± 0.735 L/kg. The t1/2α ([1]; GHI-M (GHI 5 mL/kg, i.v.)) was 2.7 ± 1.44 min, the t1/2β ([1]; GHI-M (GHI 5 mL/kg, i.v.)) was 41.5 ± 21.7 min and the “Emax (maximal effect) … ΔcTn I” value (cTn I; GHI-L ([…], i.v.)) was 4.625.
In the case of kaempferol-3-O-rutinoside, the “Emax (maximal effect) … ΔCK-MB” value (CK-MB; GHI-L ([…], i.v.)) is reported as 11.04.
